From BindingDB's records for doi:10.1016/s0960-894x(99)00680-0 (Univ. De Valencia, 2000) come the findings set out here.

In assay [1] the target is Phospholipase A2, major isoenzyme, pancreatic (Sus scrofa) (UniProt P00592). Nature of the assay: Inhibition of secretory PLA2 activity in porcine pancreas using [3H]-oleate labelled membranes at a concentration of 10 uM.
The nature of assay [2]: Inhibition of secretory PLA2 activity in bee venom enzyme using [3H]oleate labelled membranes at a concentration of 10 uM.
Assay [3] can be described thus: Inhibition of secretory PLA2 activity in Naja naja venom enzyme using [3H]oleate labelled membranes at a concentration of 10 uM.

Chain of Phospholipase A2, major isoenzyme, pancreatic (Sus scrofa) (P00592 whole entry, looked up): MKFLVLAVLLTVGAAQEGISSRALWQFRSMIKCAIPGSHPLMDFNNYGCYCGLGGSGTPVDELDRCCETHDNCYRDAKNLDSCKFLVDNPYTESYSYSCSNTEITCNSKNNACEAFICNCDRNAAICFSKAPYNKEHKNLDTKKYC

In the case of `CCCCCCCCCCCCCCC(CO)NCC` (stereo not given) [2-Ethylamino-hexadecan-1-ol], the IC50 in assay [1] turned out to be 1.4 µM; in assay [2], 6.1 µM.

As to `CCCCCCCCCCCCCCC(N)CN(CC)CC` (stereo not given) [N*1*,N*1*-Diethyl-hexadecane-1,2-diamine], the IC50 in assay [3] was determined as 9.5 µM; in assay [1], 3.6 µM; in assay [2], 11 µM.
